Measurements from patent publication US20250311722A1, “IMPROVED BIOCIDE” (Purgos ApS, priority 2022, published 2025).
“And” between values parts separate entries of the source, which are not always exact repeats. Equal values may be shown once.

Columns and labels:
Type in all cases: cell-based
[1] = test system: Aspergillus niger ISI 3; assay: Minimal inhibitory concentration (MIC)
Method: (§1) Minimum inhibitory concentrations (MICs) are defined as the lowest concentration of an antimicrobial that will inhibit the visible growth of a microorganism after a standardized incubation. In the present study, MIC assay was performed by pipetting robot. The principle is that an indicator microorganism at a defined cell density is cultured with a range of concentrations of the test compound, one concentration pr, well in a row on the microtiter plate. For bacteria and yeasts the minimal inhibitory concentration was detected as no increase of optical density (OD), for moulds microtiter plates were read visually. Each indicator organism is tested in duplicate and the MIC is calculated as the average of the two determinations. The tested concentrations of the antimicrobial substances were 2-fold dilutions from 5%. All indicator organisms (see Table 2.) were pre-cultivated in a suitable growth medium and diluted in the same medium to give a final concentration in the assay of ˜1×10^3 cfu/ml. The microtiter plates were incubated under specific incubation conditions (see Table III). [table]

[2] = test system: Leuconostoc mesenteroides ISI 504; assay: Minimal inhibitory concentration (MIC)
Method: as §1

[3] = test system: Pseudomonas aeruginosa ISI 1462; assay: Minimal inhibitory concentration (MIC)
Method: as §1

[4] = test system: Salmonella Infantis ISI 170; assay: Minimal inhibitory concentration (MIC)
Method: as §1

[5] = test system: Streptococcus termophilus ISI 1563; assay: Minimal inhibitory concentration (MIC)
Method: as §1

[6] = test system: Murine norovirus; assay: ASTM E1052 Kill Time Screen test, antiviral activity
[7] = test system: Coniophora puteana. BAM Ebw. 15; assay: EN 113 test against wood destroying basidiomycetes; conditions: for Corrected mass loss / Mass loss: single blocks
Text: (§2) EN 113, 2020: Durability of wood and wood-based products-Test method against wood destroying basidiomycetes. Assessment of biocidal efficacy of wood preservatives.
(§3) Assessment of the results shown in table XIV.: The protection provided for the wood by the test preservative at the given concentration is deemed to be adequate if: • a) the corrected mean loss is less than 3.0% (m/m) • b) not more than one specimen has suffered a loss in mass greater than 3.0% (m/m) but less than 5.0% (m/m)
(§4) The impregnation process was carried out on 24-03-2021 with the following conditions:
(§5) Pre-vacuum at 0.1 bar for 30 minutes.
(§6) Pressure of 13 bars for 60 minutes.
(§7) Scots pine sapwood (Pinus sylvestris L.) for brown rot fungi with an average density of 589 kg/m3.
(§8) 4 weeks according to EN 113 at 65% RH and 20° C. until stable mass was obtained.
(§9) Ionising radiation (2× 25 kGy).

[8] = test system: Gloeophyllum trabeum. BAM Ebw. 109; assay: EN 113 test against wood destroying basidiomycetes; conditions: for Corrected mass loss / Mass loss: single blocks; for Corrected mass loss, Mean / Mass loss, Mean: mean of blocks
Text: as §2, §3, §4, §5, §6, §7, §8, §9

[9] = test system: Poria placenta. FPRL 280; assay: EN 113 test against wood destroying basidiomycetes; conditions: for Corrected mass loss / Mass loss: single blocks
Text: as §2, §3, §4, §5, §6, §7, §8, §9

[10] = concentrations of 0.36%, 0.51%, 0.72%, 1.01% and 1.43%

Structure (SMILES): CCCCN(CCO)CCO [NBDA, N-butyldiethanolamine]
- MIC (%) [1]: 0.63%
- MIC (%) [2]: 0.31%
- MIC data (optical density) ([2]; 0.02% NBDA): 1.025 and 0.943
- MIC data (optical density) ([2]; 0.04% NBDA): 1.135 and 1.104
- MIC data (optical density) ([2]; 0.08% NBDA): 1.005 and 1.027
- MIC data (optical density) ([2]; 0.16% NBDA): 1.065 and 0.990
- MIC data (optical density) ([2]; 0.31% NBDA): 0.051 and 0.052
- MIC data (optical density) ([2]; 0.63% NBDA): 0.047 and 0.049
- MIC data (optical density) ([2]; 1.25% NBDA): 0.046 and 0.047
- MIC data (optical density) ([2]; 2.50% NBDA): 0.046
- MIC data (optical density) ([2]; 5.00% NBDA): 0.044 and 0.041
- MIC (%) [3]: 0.63%
- MIC data (optical density) ([3]; 0.02% NBDA): 1.725 and 1.921
- MIC data (optical density) ([3]; 0.04% NBDA): 1.894 and 1.661
- MIC data (optical density) ([3]; 0.08% NBDA): 1.938 and 1.871
- MIC data (optical density) ([3]; 0.16% NBDA): 1.888 and 1.911
- MIC data (optical density) ([3]; 0.31% NBDA): 1.668 and 1.319
- MIC data (optical density) ([3]; 0.63% NBDA): 0.047 and 0.044
- MIC data (optical density) ([3]; 1.25% NBDA): 0.045 and 0.043
- MIC data (optical density) ([3]; 2.50% NBDA): 0.046 and 0.047
- MIC data (optical density) ([3]; 5.00% NBDA): 0.045
- MIC (%) [4]: 1.25%
- MIC data (optical density) ([4]; 0.02% NBDA): 1.662 and 1.413
- MIC data (optical density) ([4]; 0.04% NBDA): 1.501 and 1.629
- MIC data (optical density) ([4]; 0.08% NBDA): 1.640 and 1.623
- MIC data (optical density) ([4]; 0.16% NBDA): 1.566 and 1.546
- MIC data (optical density) ([4]; 0.31% NBDA): 1.389 and 1.282
- MIC data (optical density) ([4]; 0.63% NBDA): 0.905 and 0.965
- MIC data (optical density) ([4]; 1.25% NBDA): 0.046 and 0.040
- MIC data (optical density) ([4]; 2.50% NBDA): 0.047 and 0.044
- MIC data (optical density) ([4]; 5.00% NBDA): 0.044 and 0.043
- MIC (%) [5]: 0.63%
- MIC data (optical density) ([5]; 0.02% NBDA): 0.57 and 0.515
- MIC data (optical density) ([5]; 0.04% NBDA): 0.445 and 0.473
- MIC data (optical density) ([5]; 0.08% NBDA): 0.431 and 0.462
- MIC data (optical density) ([5]; 0.16% NBDA): 0.444 and 0.438
- MIC data (optical density) ([5]; 0.31% NBDA): 0.115 and 0.108
- MIC data (optical density) ([5]; 0.63% NBDA): 0.046 and 0.043
- MIC data (optical density) ([5]; 1.25% NBDA): 0.044 and 0.045
- MIC data (optical density) ([5]; 2.50% NBDA): 0.049
- MIC data (optical density) ([5]; 5.00% NBDA): 0.041 and 0.042
- Mean log reduction after 60 seconds ([6]; 1.0% NBDA): 0.34
- Mean log reduction after 60 seconds ([6]; 5.0% NBDA): 0.34
- Norovirus eliminated (destroyed) in 60 seconds ([6]; from log reduction 0.34): 54%
- Toxic value, Retention of product ([7]; Scots pine sapwood): >9.86 kg/m^3
- Toxic value, Solution conc. ([7]; Scots pine sapwood): >1.43 % w/w
- Corrected mass loss, Mean ([7]; solution conc. 0.36% w/w): 36.6%
- Mass loss, Mean ([7]; solution conc. 0.36% w/w): 36.8%
- Corrected mass loss ([7]; solution conc. 0.36% w/w): 39.2% and 27.2% and 47.6% and 32.3%
- Mass loss ([7]; solution conc. 0.36% w/w): 39.4% and 27.4% and 47.8% and 32.5%
- Corrected mass loss, Mean ([7]; solution conc. 0.51% w/w): 38.3%
- Mass loss, Mean ([7]; solution conc. 0.51% w/w): 38.5%
- Corrected mass loss ([7]; solution conc. 0.51% w/w): 42.4% and 39.5% and 34.0% and 37.2%
- Mass loss ([7]; solution conc. 0.51% w/w): 42.6% and 39.7% and 34.2% and 37.4%
- Corrected mass loss, Mean ([7]; solution conc. 0.72% w/w): 37.4%
- Mass loss, Mean ([7]; solution conc. 0.72% w/w): 37.1%
- Corrected mass loss ([7]; solution conc. 0.72% w/w): 29.8% and 43.3% and 36.9% and 39.7%
- Mass loss ([7]; solution conc. 0.72% w/w): 29.5% and 43.0% and 36.6% and 39.3%
- Corrected mass loss, Mean ([7]; solution conc. 1.01% w/w): 40.4%
- Mass loss, Mean ([7]; solution conc. 1.01% w/w): 39.9%
- Corrected mass loss ([7]; solution conc. 1.01% w/w): 37.2% and 41.8% and 45.1% and 37.3%
- Mass loss ([7]; solution conc. 1.01% w/w): 36.7% and 41.4% and 44.6% and 36.8%
- Corrected mass loss, Mean ([7]; solution conc. 1.43% w/w): 36.1%
- Mass loss, Mean ([7]; solution conc. 1.43% w/w): 35.0%
- Corrected mass loss ([7]; solution conc. 1.43% w/w): 31.1% and 37.2% and 38.4% and 37.8%
- Mass loss ([7]; solution conc. 1.43% w/w): 30.0% and 36.2% and 37.3% and 36.7%
- Toxic value, Retention of product ([8]; Scots pine sapwood): 6.85-10.03 kg/m^3
- Toxic value, Solution conc. ([8]; Scots pine sapwood): 1.01-1.43 % w/w
- fungicide for preventing wood destruction [8, 10]: effective as a fungicide
- Corrected mass loss ([8]; solution conc. 0.36% w/w): 44.8% and 30.6% and 32.5% and 33.8%
- Mass loss ([8]; solution conc. 0.36% w/w): 45.0% and 30.8% and 32.7% and 34.0%
- Corrected mass loss, Mean ([8]; solution conc. 0.36 % w/w): 35.4%
- Mass loss, Mean ([8]; solution conc. 0.36 % w/w): 35.6%
- Corrected mass loss ([8]; solution conc. 0.51% w/w): 34.8% and 29.4% and 36.4% and 31.1%
- Mass loss ([8]; solution conc. 0.51% w/w): 35.0% and 29.6% and 36.6% and 31.3%
- Corrected mass loss, Mean ([8]; solution conc. 0.51 % w/w): 32.9%
- Mass loss, Mean ([8]; solution conc. 0.51 % w/w): 33.1%
- Corrected mass loss ([8]; solution conc. 0.72% w/w): 30.9% and 33.1% and 34.2% and 26.5%
- Mass loss ([8]; solution conc. 0.72% w/w): 30.6% and 32.7% and 33.8% and 26.1%
- Corrected mass loss, Mean ([8]; solution conc. 0.72 % w/w): 31.2%
- Mass loss, Mean ([8]; solution conc. 0.72 % w/w): 30.8%
- Corrected mass loss, Mean ([8]; solution conc. 1.01 % w/w): 11.4%
- Mass loss, Mean ([8]; solution conc. 1.01 % w/w): 11.0%
- Corrected mass loss ([8]; solution conc. 1.43% w/w): 0.7% and 0.3% and 2.0%
- Mass loss ([8]; solution conc. 1.43% w/w): −0.4% and −0.8% and 1.0% and 0.9%
- Corrected mass loss, Mean ([8]; solution conc. 1.43 % w/w): 1.3%
- Mass loss, Mean ([8]; solution conc. 1.43 % w/w): 0.2%
- Toxic value, Retention of product ([9]; Scots pine sapwood): 4.87-7.02 kg/m^3
- Toxic value, Solution conc. ([9]; Scots pine sapwood): 0.72-1.01 % w/w
- fungicide for preventing wood destruction [9, 10]: effective as a fungicide
- Corrected mass loss, Mean ([9]; solution conc. 0.36% w/w): 14.2%
- Mass loss, Mean ([9]; solution conc. 0.36% w/w): 14.4%
- Corrected mass loss ([9]; solution conc. 0.36% w/w): 14.0% and 19.2% and 11.4% and 12.3%
- Mass loss ([9]; solution conc. 0.36% w/w): 14.2% and 19.4% and 11.6% and 12.5%
- Corrected mass loss, Mean ([9]; solution conc. 0.51% w/w): 14.6%
- Mass loss, Mean ([9]; solution conc. 0.51% w/w): 14.8%
- Corrected mass loss ([9]; solution conc. 0.51% w/w): 14.0% and 17.1% and 14.2% and 13.3%
- Mass loss ([9]; solution conc. 0.51% w/w): 14.2% and 17.3% and 14.4% and 13.5%
- Corrected mass loss, Mean ([9]; solution conc. 0.72% w/w): 8.2%
- Mass loss, Mean ([9]; solution conc. 0.72% w/w): 7.8%
- Corrected mass loss ([9]; solution conc. 0.72% w/w): 9.2% and 9.0% and 6.3% and 8.2%
- Mass loss ([9]; solution conc. 0.72% w/w): 8.9% and 8.7% and 5.9% and 7.9%
- Corrected mass loss, Mean ([9]; solution conc. 1.01% w/w): 1.4%
- Mass loss, Mean ([9]; solution conc. 1.01% w/w): 1.0%
- Corrected mass loss ([9]; solution conc. 1.01% w/w): 2.5% and 0.1% and 1.3% and 1.9%
- Mass loss ([9]; solution conc. 1.01% w/w): 2.0% and −0.3% and 0.8% and 1.4%
- Corrected mass loss, Mean ([9]; solution conc. 1.43% w/w): 1.5%
- Mass loss, Mean ([9]; solution conc. 1.43% w/w): 0.4%
- Corrected mass loss ([9]; solution conc. 1.43% w/w): 0.5% and 4.1% and 0.7% and 0.6%
- Mass loss ([9]; solution conc. 1.43% w/w): −0.6% and 3.0% and −0.4% and −0.5%
